“Also recorded” adds a separate entry of the source. Marks after values point to notes of the source that are not given here.
What was measured:
[1] = test system: Tau (AD brain homogenate vs healthy control brain homogenate); test: Tracer signal-to-noise ratio, AD brain homogenate vs healthy control brain homogenate; assay type: binding, human; set-up: High signal to noise (grade), AD brain / HC brain homogenate / High signal to noise (further homogenates) (grade): key to the marks not given beside the values
[2] = test system: Tau (AD brain vs mouse brain homogenate); test: Tracer signal ratio, AD brain vs mouse brain homogenate; assay type: binding, human; set-up: High signal to noise (grade), AD brain / mouse brain homogenate: key: −: poor; ∘: moderate; +: good; ++: very good; +++: excellent
Tau in AD brain sections = test: Autoradiography on human AD brain slices; assay type: binding
Method: (§1) 18 micron thick frozen human brain slices and 6 micron thick human FFPE brain slices were examined via autoradiography. Brain sections were equilibrated for at least 1 h in 1×PBS solution prior to use in the experiment. Each brain section was covered with a solution of the ^18F-labeled tracer (200 Bq/μl, 500 μl) in 1×PBS. For blocking experiments with the corresponding ^19F-compound, an excess of the blocking compound (10 μM) was mixed with the ^18F-compound. The brain sections were allowed to incubate with the tracer solution at room temperature for 1 h, drained afterwards and placed in a slide holder. The slides were then washed sequentially with 1×PBS for 1 min; 70% EtOH in 1×PBS for 2 min; 30% EtOH in 1×PBS for 2 min; and 1×PBS for 1 min. The slides were allowed to air-dry before being placed on Fuji imaging plates […] for overnight exposure. The imaging plates were scanned and the signal was measured using Fuji software to produce an autoradiographic image of the brain section.

[3] = biological target: T1, Tau in PSP brain sections (Homo sapiens, UniProt P10636); test: Autoradiography on human PSP brain slices; assay type: binding
T1 construct: frozen human brain slices; from tissue; host or cells: human PSP brain slices
Method: as §1

[4] = biological target: T2, Tau in PiD brain sections (Homo sapiens, UniProt P10636); test: Autoradiography on human PiD brain slices; assay type: binding
T2 construct: frozen human brain slices; from tissue; host or cells: human PiD brain slices
Method: as §1

[5] = Autoradiography on healthy control (HC) human brain slices; assay type: binding
Method: as §1

MAO A [6] = biological target: T3, MAO A (Mus musculus, UniProt Q64133); test: MAO A 18F-FEH competition assay in mouse brain homogenate; assay type: binding; set-up: Low affinity to MAO A (grade), mouse brain homogenate: key to the marks not given beside the values; conditions: for IC50: 18F-FEH competition, fluorine-19 derivatives
T3 construct: from tissue; host or cells: whole mouse brain homogenate
T3 sequence (Q64133 1-526): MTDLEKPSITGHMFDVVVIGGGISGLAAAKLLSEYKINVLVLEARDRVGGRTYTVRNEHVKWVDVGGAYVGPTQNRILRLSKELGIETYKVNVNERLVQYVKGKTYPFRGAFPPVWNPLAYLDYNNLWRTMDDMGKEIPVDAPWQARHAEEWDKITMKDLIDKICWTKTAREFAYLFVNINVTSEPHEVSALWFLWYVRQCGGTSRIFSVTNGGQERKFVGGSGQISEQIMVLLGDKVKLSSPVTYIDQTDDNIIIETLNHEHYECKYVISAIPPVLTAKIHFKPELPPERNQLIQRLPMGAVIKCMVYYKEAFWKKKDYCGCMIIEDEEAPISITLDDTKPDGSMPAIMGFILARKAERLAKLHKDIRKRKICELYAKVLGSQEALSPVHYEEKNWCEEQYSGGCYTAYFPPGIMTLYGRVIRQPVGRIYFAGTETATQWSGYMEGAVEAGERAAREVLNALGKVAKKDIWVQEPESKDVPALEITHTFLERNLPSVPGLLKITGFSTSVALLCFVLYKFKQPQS

MAO A [7] = biological target: T4, MAO A (Homo sapiens, UniProt P21397); test: MAO A FEH competition assay in human HC brain homogenate; assay type: binding; set-up: Low affinity to MAO A (grade), HC homogenate: key: −: poor; ∘: moderate; +: good; ++: very good; +++: excellent; conditions: for IC50: human control brain homogenate, FEH competition, fluorine-19 derivatives
T4 construct: 20 μg of human brain homogenate (without AD pathology); from tissue; host or cells: human brain homogenate without AD pathology
T4 sequence (P21397 1-527): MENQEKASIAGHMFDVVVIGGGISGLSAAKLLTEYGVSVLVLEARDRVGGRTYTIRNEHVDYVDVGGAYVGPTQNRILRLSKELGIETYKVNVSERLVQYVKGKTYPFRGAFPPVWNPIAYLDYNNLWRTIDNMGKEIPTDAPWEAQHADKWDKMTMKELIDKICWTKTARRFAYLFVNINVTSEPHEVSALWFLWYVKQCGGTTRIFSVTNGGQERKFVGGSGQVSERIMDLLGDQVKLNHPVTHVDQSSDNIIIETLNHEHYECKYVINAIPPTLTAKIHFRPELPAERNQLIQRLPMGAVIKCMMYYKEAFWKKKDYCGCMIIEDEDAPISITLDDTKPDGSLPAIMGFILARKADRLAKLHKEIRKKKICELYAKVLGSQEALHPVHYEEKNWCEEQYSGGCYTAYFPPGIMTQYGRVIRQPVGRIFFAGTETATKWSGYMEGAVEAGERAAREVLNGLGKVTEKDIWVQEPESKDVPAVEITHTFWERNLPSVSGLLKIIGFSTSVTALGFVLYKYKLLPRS
Method: 20 μg of human brain homogenate (without AD pathology) was incubated with a dilution series of each test compound (1000 to 0.06 nM) in the presence of 800 Bq of ^18F-labeled MAO-A binder ([^18F]fluoroethyl harmine, FEH). The samples were shaken at 110 rpm for 45 min at 37° C. Samples were then filtered through GF/B 96 well filter plates and washed twice with 300 μL assay buffer (PBS containing 0.1% BSA and 2% DMSO). Thereafter, filter plates were sealed and a Fuji Film Imaging Plate (BAS-SR2025) was placed on top. The imaging plate was analyzed after overnight exposition using a Fuji Film BAS-5000. Non-specific signal was determined with samples containing ^18F-labeled FEH in the presence of assay buffer without brain substrate and competitor. […] The unblocked ^18F-labeled FEH signal was defined as total binding. IC50 values were calculated by Prism V6 (GraphPad) setting total binding to 100%.

Tau pathology = test: Human imaging study (PET in AD subjects and non-demented controls); assay type: in vivo
Method: In a clinical trial, subjects with AD as well as non-demented controls (NDC) underwent dynamic PET imaging for over 3 h following 370 MBq bolus injection of ^18F-4.

[8] = further AD brain homogenate vs HC brain homogenate

T2 sequence (P10636 1-410 isoform P10636-5): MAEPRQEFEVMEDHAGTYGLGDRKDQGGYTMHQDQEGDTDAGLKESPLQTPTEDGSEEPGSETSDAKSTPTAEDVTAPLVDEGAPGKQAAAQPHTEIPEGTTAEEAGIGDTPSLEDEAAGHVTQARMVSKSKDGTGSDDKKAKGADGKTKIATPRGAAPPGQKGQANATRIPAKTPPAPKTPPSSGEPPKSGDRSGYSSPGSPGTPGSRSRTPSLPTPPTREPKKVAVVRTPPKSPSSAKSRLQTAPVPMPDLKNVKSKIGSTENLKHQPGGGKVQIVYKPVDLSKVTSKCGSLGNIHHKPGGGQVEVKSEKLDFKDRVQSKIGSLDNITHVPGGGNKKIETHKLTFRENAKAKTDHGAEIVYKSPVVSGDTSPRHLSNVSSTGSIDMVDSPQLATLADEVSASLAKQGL
T1 sequence (P10636 1-441 isoform P10636-8): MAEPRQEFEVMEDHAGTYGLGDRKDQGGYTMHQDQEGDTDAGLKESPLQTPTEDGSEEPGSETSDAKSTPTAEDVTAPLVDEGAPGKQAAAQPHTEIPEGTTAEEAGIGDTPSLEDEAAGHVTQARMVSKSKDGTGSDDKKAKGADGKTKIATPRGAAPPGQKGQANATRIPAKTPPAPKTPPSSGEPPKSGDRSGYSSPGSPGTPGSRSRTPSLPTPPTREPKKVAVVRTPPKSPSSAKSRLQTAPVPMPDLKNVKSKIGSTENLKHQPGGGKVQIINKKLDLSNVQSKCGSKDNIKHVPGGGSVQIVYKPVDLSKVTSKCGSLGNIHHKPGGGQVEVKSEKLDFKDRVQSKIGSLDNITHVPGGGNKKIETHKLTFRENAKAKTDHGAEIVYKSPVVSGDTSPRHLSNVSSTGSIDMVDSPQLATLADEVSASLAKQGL

**Q.** Which results are given for `[18F]c1ncccc1-c1ccc2c(n1)[nH]c1ccncc12` [Compound ^18F-4]?
**A.** fold higher signal to noise ratio than 18F-1 ([1]; AD vs HC brain homogenate): 7.7 fold; High signal to noise (further homogenates) (grade) ([1]; Table 1): +++; High signal to noise (grade), AD brain / HC brain homogenate ([1]; Table 1): +++; fold higher signal to noise ratio than 18F-1 [1, 8]: 7.2-11 fold; fold higher signal to noise ratio than 18F-2 [1, 8]: 3.7-4.0 fold; Ratio of tracer signal AD brain / signal in mouse brain homogenate ([2]; 18F tracer): 15.1^a); fold higher signal to noise ratio than 18F-1 ([2]; AD brain homogenate vs whole mouse brain homogenate): 6.9 fold; High signal to noise (grade), AD brain / mouse brain homogenate ([2]; Table 1): +++; Autoradiography signal in AD brain sections (in words) (Tau in AD brain sections; blockable with excess cold compound): strong punctated staining; also recorded: Specific binding; Binding to AD brain (Braak stage 1/3) by autoradiography (grade) (Tau in AD brain sections; in house data): +++^a); Binding to AD brain (Braak stage 5/6) by autoradiography (grade) (Tau in AD brain sections; in house data): +++^a); Autoradiography signal in PSP brain sections (in words) [3]: strong signal; Binding to PSP brain slices by autoradiography (grade) ([3]; in house data): +++^a); Autoradiography signal in PiD brain sections (in words) [4]: strong signal; Binding to PiD brain slices by autoradiography (grade) ([4]; in house data): +++^a); Autoradiography signal in healthy control (HC) sections (in words) [5]: no specific signal was visible; IC50 (MAO A [6]): 1300 nM; Low affinity to MAO A (grade), mouse brain homogenate (MAO A [6]; Table 1): +++; fold higher MAO A IC50 than compound 18F-1 (MAO A [6]; whole mouse brain homogenate): 59 fold; fold higher MAO A IC50 than compound 18F-2 (MAO A [6]; whole mouse brain homogenate): 2.7 fold; fold higher MAO A IC50 than compound 18F-1 (MAO A [7]; HC brain homogenate): 106 fold; fold higher MAO A IC50 than compound 18F-2 (MAO A [7]; HC brain homogenate): 5 fold; Low affinity to MAO A (grade), HC homogenate (MAO A [7]; Table 1): ++; IC50 (MAO A [7]): 530 nM; brain uptake in human subjects (in words) (Tau pathology; 370 MBq bolus, dynamic PET): good brain uptake; washout from non-target brain regions in human subjects (in words) (Tau pathology; 370 MBq bolus, dynamic PET): fast washout; uptake in AD subjects (in words) (Tau pathology; AD subjects): focal asymmetric uptake was evident in temporal, parietal and frontal lobes; uptake in choroid plexus, basal ganglia, striatum, amygdala, meninges in non-demented controls (in words) (Tau pathology; NDC subjects): no increased uptake

**Q.** What does the source list for `Fc1ncccc1-c1ccc2c(n1)[nH]c1ccncc12` [Compound F-4]?
**A.** IC50 (MAO A [6]): > 1000 nM; low MAO A binding (grade) (MAO A [6]; Table 2, IC50 in mouse brain homogenate): +++; IC50 (MAO A [7]): 530 nM
